Source: PubChem BioAssay AID1394 (PCMD, 2008)
Calls of active or inactive are those of the source.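 How the source made its calls: active means fitted EC50 above 0 with maximum enhancement above 35%; inactive means the rest.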

target: E3 ubiquitin-protein ligase Mdm2 (Homo sapiens) (UniProt Q00987); test: 384-well cell-based luminescence, MDM2-luciferase reporter signal enhancement, concentration series, MDM2 ligase inhibitor project (AID 1394); conditions: cells, MDM2-luciferase autoubiquitination reporter, 2 h
Sequence (Q00987 whole entry, looked up): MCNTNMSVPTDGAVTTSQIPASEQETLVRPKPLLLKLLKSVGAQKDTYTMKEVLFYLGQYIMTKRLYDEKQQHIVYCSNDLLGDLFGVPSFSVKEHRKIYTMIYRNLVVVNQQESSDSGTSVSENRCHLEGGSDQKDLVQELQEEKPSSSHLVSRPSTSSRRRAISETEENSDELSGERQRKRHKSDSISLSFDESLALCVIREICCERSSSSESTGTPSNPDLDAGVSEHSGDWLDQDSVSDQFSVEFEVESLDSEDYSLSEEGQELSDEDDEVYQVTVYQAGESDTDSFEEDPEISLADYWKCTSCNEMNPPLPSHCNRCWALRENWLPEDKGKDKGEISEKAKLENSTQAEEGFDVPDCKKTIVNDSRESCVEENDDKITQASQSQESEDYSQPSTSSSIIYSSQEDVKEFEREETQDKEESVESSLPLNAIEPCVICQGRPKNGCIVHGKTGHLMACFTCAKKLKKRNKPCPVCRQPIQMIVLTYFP

| SMILES | EC50 |
| --- | --- |
| O=C1CC(c2cccc(Cl)c2)CC(O)=C1C=NC1CCCC1 (centres undefined) | inactive |

same assay, conditions: cells, MDM2-luciferase autoubiquitination reporter, 2 h

| SMILES | maximum enhancement |
| --- | --- |
| CC1=NN(c2ccc(C)cc2)C(=O)/C1=C\C=C\c1ccccc1 | inactive |
| O=C(COc1ccccc1)Nc1ncccn1 | inactive |
| COc1ccc(OC(C)C(=O)Nc2ccccc2C(F)(F)F)cc1 (centres undefined) | inactive |
| O=C(CNCc1ccc(Cl)cc1)Nc1cccc(C(=O)O)c1 | inactive |
| Cn1c(=NC(=O)c2ccc3c(c2)OCCO3)sc2cc(S(C)(=O)=O)ccc21 | inactive |
| O=S1(=O)C=C(Sc2nc3ccccc3s2)c2ccccc21 | inactive |
| COc1ccc(N2C(=S)N=C(Nc3ccccc3)C23CCCCC3)cc1 | inactive |
| COc1ccc(NC(=O)/C(C#N)=C\c2ccc(OCc3ccc(C(=O)O)cc3)c(OC)c2)cc1 | inactive |
| CCn1cc(C(=O)NCc2ccccc2OC)c(=O)c2cc(S(=O)(=O)N(C)C)ccc21 | inactive |
| N#Cc1nc(Cc2ccccc2)oc1NCCN1CCOCC1 | inactive |
| Fc1cccc(Cl)c1/C=N/n1c(-c2cccnc2)n[nH]c1=S | inactive |
| CCc1cc2c(=O)c(-c3nc4ccccc4n3C)c(CCCC(=O)O)oc2cc1OC(=O)C(C)(C)C | inactive |
| O=C(c1cn(-c2ccccc2)nc1-c1cccs1)N1CCOCC1 | inactive |
| O=C(CN1CCCCC1)NC(=O)NCc1ccccc1 | inactive |
| COc1cc(/C=C2/C(=N)N3OC(C)=CC3=NC2=O)ccc1OC(=O)c1ccco1 | inactive |
| Cc1[nH]c2ccc(Cl)cc2c(=O)c1CN1CCCC1 | inactive |
| C/C(=N\NC(N)=S)c1cccnc1 | inactive |

| SMILES | maximum enhancement |
| --- | --- |
| Cc1cc(=O)n2[nH]c(N3C(=O)CCC3=O)nc2n1 | inactive |
| C=C1CCN(C(C(=O)OC)C(C)C)S(=O)(=O)c2ccccc21 (centres undefined) | inactive |
| N=C1C(c2nc3ccccc3[nH]2)=C(O)CN1c1ccccc1 | inactive |
| Cn1c(=O)cc(OCC(=O)NCc2cccs2)c2ccccc21 | inactive |
| CCCCC(=O)/C=C/n1c(=S)oc2ccccc21 | inactive |
| CCCCS(=O)(=O)/C=C\C=C/S(=O)(=O)CCCC | inactive |
| CCN(C(=O)CSc1nc2ccccc2c(=O)n1-c1cccc(C)c1)C1CCS(=O)(=O)C1 (centres undefined) | inactive |
| CCN(CC)Cc1cc(C(=O)O)c(C)o1 | inactive |
| Cc1ccc(/C=C2/NC(=O)N(Cc3ccc(Br)cc3)C2=O)o1 | inactive |
| COC(Cn1cc(C)c(=O)[nH]c1=O)OC | inactive |
| COc1ccccc1-c1nnc(Nc2nc3c(OC)cccc3s2)o1 | inactive |
| O=C(O)CCc1ccc(-c2ccc(Br)cc2)n1CC(=O)O | inactive |
| CC(=O)Cc1nsc(Nc2ccc(C)cc2)n1 | inactive |
| Cc1cc(C)cc(OCC(=O)NNC(=O)CCN2C(=O)c3ccccc3C2=O)c1 | inactive |
| Cc1ccc(Nc2nnc(SCC3CCCCO3)s2)cc1 (centres undefined) | inactive |
| Cc1ccc(N2C(=O)NC(=O)/C(=C\C=C\c3ccco3)C2=O)cc1C | inactive |
